Data set [1] relates to capsule-induced or -suppressed C. neoformans H99 cells. As to the kind of experiment: In vitro time course assay of capsule influence. It counts as cell-based, Cryptococcus neoformans. The conditions noted are these: H99; PMB at 12.5 μM, octapeptin C4 at 1.56 μM; 0-8 h; two replicates. The method, then: (A) C. neoformans grown on capsule inducing RPMI 1640 agar medium (without L-glutamine and sodium bicarbonate) with incubation at 37°C in 5% CO2 for 3 days. Scale bar, 20 μm. (B) C. neoformans grown on capsule-suppressing media, YPD containing 1 M NaCl at 30°C in ambient air for 3 days. […] The data represent the means of two replicates, and the error bars represent the standard errors of the mean (SEM).
Capsule induction of strain H99 was achieved as described by Zhai et al. ([37]) with growth on RPMI 1640 (without L-glutamine and sodium bicarbonate) (Sigma, Australia) agar medium and incubation at 37°C in 5% CO2 and capsule suppression by growth on YPD containing 1 M NaCl at 30°C in ambient air. After 3 days, the cells from each culture were collected, washed twice with phosphate-buffered saline (PBS), and resuspended in PBS to avoid changes in the capsule at a density of 1,500 to 2,000 cells/ml. Cell suspensions were treated with test compounds at the determined MIC value. The compounds tested were PMB sulfate, octapeptin C4, and the octapeptin C4 alanine scan derivatives P1L, P1D, P4, P3, P4L, P4D, P5, P6, P7, and P8. At 0, 1, 2, 4, 6, and 8 h after inoculation, samples from each treatment were spread onto a YPD plate, followed by incubation at 30°C for 3 days, at which time the colonies were counted. The assay was repeated in duplicate, and paired sample t tests were performed using GraphPad Prism v7.0 (GraphPad Software, USA).

For the next data set, the system named is human kidney-2 cell line. Particulars: cited from earlier work.
Another data set concerns C. gattii MMRL 2651. Particulars: 72 h. The method, then:
(§1) A broth microdilution assay was initially used to characterize the antifungal activity of the cyclic lipopeptides ([39], [40]). […] common pathogenic yeasts (C. albicans, C. glabrata, C. parapsilosis, C. neoformans, and C. gattii) and one pathogenic mold (A. fumigatus) were tested to determine the MIC for each compound (Table 1) using broth microdilution. […] The only structural difference between these molecules is the presence of a phenylalanine residue at position 6 in PMB; in PME a D-leucine is present at this location (Fig. 1).
(§2) Fungal strains were stored in 15% glycerol at −80°C until use. The fungal strains used were H99 (C. neoformans type strain) ([55]), cap59Δ (an acapsular H99 mutant) ([56]), ATCC 90113 (C. neoformans), MMRL 2651 (C. gattii), ATCC 90028 (Candida albicans), ATCC 90030 (Candida glabrata), ATCC 22019 (Candida parapsilosis), and ATCC MYA 3626 (Aspergillus fumigatus). Yeasts were cultured in liquid (1% yeast extract, 2% Bacto peptone, 2% glucose) or solid (additional 2% agar) yeast extract-peptone-dextrose (YPD) media at 30°C and maintained at 4°C for no longer than 2 weeks. A. fumigatus was prepared on potato dextrose medium at 30°C and maintained at 4°C for no longer than 2 weeks.
(§3) The MICs of the yeast strains for PMB, PME, and octapeptin C4 and its derivatives were determined in accordance with CLSI M27-A2 guidelines using YNB (Becton Dickinson, USA) medium supplemented with 10 mM ammonium sulfate and 2% glucose, a final inoculum concentration of 1.5 × 10^3 to 2.0 × 10^3 cells/ml, and incubation at 35°C for 72 h ([39]). […] The MICs for PMB, PME, and octapeptin C4 for A. fumigatus were determined in accordance with the CLSI M38-A2 guidelines ([40]) using synthetic RPMI 1640 medium (with glutamine, without bicarbonate and with phenol red; Life Technologies, USA). The final inoculum concentration was 0.4 × 10^4 to 5 × 10^4 cells/ml, with incubation at 35°C for 48 h. […] All assays were completed in triplicate. Fluconazole was used as a positive control where the MIC was determined at both 50% growth (in accordance with CLSI M27-A2 guidelines) and when there was a “no visible growth” reading.

The next data set has as its system C. neoformans ATCC 90113. Particulars: ATCC 90113, 72 h. The procedure: as §1, §2, §3
A further data set relates to C. neoformans H99. The method, then: as §1, §2, §3
Data set [2] concerns melanized and nonmelanized C. neoformans cells. Briefly: In vitro time course assay of melanization effect. It counts as cell-based, Cryptococcus neoformans. Particulars: melanin induced on L-DOPA agar vs suppressed on YPD agar; PMB at 12.5 μM, octapeptin C4 at 1.56 μM; 0-8 h; two replicates. The method, then:
(A) Melanin suppressed C. neoformans. (B) Melanin induced C. neoformans. […] Samples from each flask were taken 0, 1, 2, 4, 6, and 8 h after inoculation, spread onto a YPD plate, and incubated at 30°C for 3 days, at which time the colonies were counted. The data represent the means of two replicates, and the error bars represent the SEM.
Melanization was induced by growth on L-DOPA agar medium at 30°C and suppressed by growth on YPD agar medium at 30°C. Cells were grown over 3 days and collected, washed twice in PBS, and then resuspended in PBS at a density of 1,500 to 2,000 cells/ml. Aliquots of the cells were treated with PMB sulfate, octapeptin C4, and the octapeptin C4 derivatives P1L, P1D, P4, P3, P4L, P4D, P5, P6, P7, and P8 at the determined MICs. At 0, 1, 2, 4, 6, and 8 h after inoculation, samples of the suspension were spread onto YPD agar and incubated at 30°C for 3 days, and the colonies were counted. The assay was repeated in duplicate, and paired sample t tests were performed in GraphPad Prism v7.0.

Structures are written as SMILES. ≈ marks a conversion by molar mass, not a printed value. Entries after “also recorded” stand apart in the source; their conditions may differ. Where a SMILES comes first, the peptide text is derived from it. Bridges are numbered along the chain shown (N, C = ends). [ ]: non-standard residue; d: D form. The star is where a group is joined. Decanoyl(3R-OH) = CCCCCCC[C@@H](O)CC(=O)*; dDab = NCC[C@@H](N)C(=O)O; Dab = NCC[C@H](N)C(=O)O

As for `CCCCCCC[C@@H](O)CC(=O)N[C@H](CCN)C(=O)N[C@H]1CCNC(=O)[C@H](CC(C)C)NC(=O)[C@H](CCN)NC(=O)[C@H](CCN)NC(=O)[C@H](CC(C)C)NC(=O)[C@@H](Cc2ccccc2)NC(=O)[C@H](CCN)NC1=O` [Octapeptin C4, octapeptin C4] ({Decanoyl(3R-OH)}-[dDab][Dab][Dab][dF]L[Dab][Dab]L; lactam 2-C (inferred); N-terminus assumed), in data set [1], the “effect of capsule formation on fungicidal activity” value is “retarded the fungicidal activity; also recorded: small but statistically significant increase in survival”. In the data set with human kidney-2 cell line, the 50% cytotoxic concentration is 31 µM. Moreover, in the data set on C. gattii MMRL 2651, the “MIC C. gattii” value was 3.13 µg/mL (≈ 3 µM) and the “MICs against various Cryptococcus strains: MMRL 2651” value was 3.13 µg/mL. Further, in the data set with C. neoformans ATCC 90113, the “MIC C. neoformans ATCC 90113” value is 1.56 µg/mL (≈ 1.49 µM) and the “MICs against various Cryptococcus strains: ATCC 90113” value was 1.56 µg/mL. For the same compound, in the data set on C. neoformans H99 (H99, 72 h), the “MIC C. neoformans H99” value is 1.56 µg/mL (≈ 1.49 µM) and the “MICs against various Cryptococcus strains: H99” value came out at 1.56 µg/mL. In the data set on C. neoformans H99 (by MIC against C. neoformans), the “fold more potent than PMB” value is on record as ~8 fold and the “fold more potent than PME” value was > 60 fold. Besides, in data set [2], the “effect of melanization on fungicidal activity” value is listed as “slightly enhanced”.

The values are drawn from publication PMC5786788, “Antimicrobial Octapeptin C4 Analogues Active against Cryptococcus Species” (Antimicrobial Agents and Chemotherapy, 2018).
